From patent US8222298B2, “Methods of correcting imbalance between bone resorption and bone formation and kits and compositions therefor” (CHU Sainte-Justine, priority 2007, dated 2012)

Key:
[1] = test system: adenylyl cyclase activity of forskolin-stimulated RAW 264.7 cells; assay: cAMP production in forskolin-stimulated RAW264.7 cells (enzyme immunoassay); format: cell-based, mouse; settings: increasing doses, 10^-4M forskolin, 30 minutes at 37° C., no RANKL
Procedure: RAW264.7 cells were grown in culture medium without RANKL until confluence (7 days). Cells were then incubated with 10^−4M of forskolin in presence of various concentrations of melatonin (FIG. 9, panel A), 4-P-PDOT (FIG. 9, panel B) or both (FIG. 9, panel C). Concentrations ranged from 10^−11 to 10^−5M for melatonin and from […] to 10^−4M for 4-P-PDOT. In the double treatment group, cells were treated with increasing concentrations of melatonin (10^−11 to 10^−5M) to which 10^−6M of 4-P-PDOT was added. After 30 minutes incubation at 37° C., cells were lysed in TRIS-EDTA buffer supplemented with protease and phosphodiesterase inhibitors at 4° C. The cAMP content was determined in duplicate in 200 μL aliquot of the supernatant using an enzyme immunoassay kit. […]

RAW 264.7 cells = assay: Bone resorption assay on resorbable bone analog (BioCoat Osteologic discs); format: cell-based, mouse; settings: 10^-9M melatonin with RANKL, 10 days culture
Procedure: Osteoclast activity was determined using a resorbable bone analog (BioCoat™ Osteologic™ discs, BD Biosciences). RAW 264.7 cells were plated on 16-well plates coated with this analog. 24 hours post-plating, cells were treated with RANKL alone or with RANKL+10^−6M of 4-P-PDOT for a period of 10 days. In another set of experiments, 10^−6M of 4-P-PDOT was added after 6 days of culture with RANKL and cells were cultured for an additional 4 days in order to examine the effects of 4-P-PDOT on more mature cells. At the end of the culture period, cells were detached with bleach and bone analog stained with 5% silver nitrate according to manufacturer's instructions to reveal the presence of resorbed bone area (resorption pits). The number of pits and the area of resorbed bone were quantified in 8 microscopic fields in duplicate using Bioquant™ software. The effect of melatonin on osteoclastogenesis and osteoclast function was assessed with the same methods as those described in Examples 2 and 3 above except that cells were grown in the presence of 10^−9M of melatonin in addition to RANKL. In some experiments, melatonin was added along with 10^−6M of 4-P-PDOT. Cells treated with RANKL alone served as controls.

RAW264.7 cells [2] = assay: Osteoclast differentiation measured by TRAP staining of RANKL-treated RAW264.7 cells; format: cell-based, mouse; settings: 2.5 or 6 days
Procedure: Cellular model RAW264.7 (mouse macrophage cell line, ATCC # TIB-71). These cells differentiate in osteoclast-like cells upon addition of receptor activator of nuclear factor-kappaB ligand (RANKL). Cell differentiation usually occurs within two days. Cells were studied at 2.5 (early stage), 6 and 10 days (late stage) following RANKL addition. Experimental treatments: In some experiments, 4-P-PDOT was added to the cells at the same time as RANKL at a concentration of 10^−6M. Cells cultured with RANKL only served as controls. In order to assess osteoclastogenesis, RAW264.7 cells were cultured with RANKL for 2.5 or 6 days with and without 10^−6M of 4-P-PDOT. RAW264.7 cells were fixed with paraformaldehyde and stained for TRAP activity (marker of active osteoclasts) at 2.5 and 6 days of differentiation. Positive-stained cells with more than 3 nuclei were counted in eight different microscopic fields done in quadruplicate. Results are presented in FIGS. 3A and B for the 2.5 or 6 days experiments, respectively. […] The effect of melatonin on osteoclastogenesis and osteoclast function was assessed with the same methods as those described in Examples 2 and 3 above except that cells were grown in the presence of 10^−9M of melatonin in addition to RANKL. In some experiments, melatonin was added along with 10^−6M of 4-P-PDOT. Cells treated with RANKL alone served as controls.

RANK = RANK expression by RT-PCR in RAW264.7 cell-derived osteoclasts; format: cell-based, mouse; settings: RT-PCR after 6 days of treatment; 10^-9M melatonin, 10^-6M 4-P-PDOT
Procedure: The effect of melatonin and of 4-P-PDOT on the expression of various genes involved in osteoclast differentiation and activity was evaluated by RT-PCR after 6 days of treatment.

RAW264.7 cells [3] = assay: Cell apoptosis by DeadEnd fluorometric TUNEL system; format: cell-based, mouse; settings: 10^-6M 4-P-PDOT with RANKL, 6 days
Procedure: RAW264.7 cells were grown in culture medium with RANKL for 6 days with or without 10^−6M of 4-P-PDOT. Cells were fixed in 3.7% of paraformaldehyde and permeabilized with 0.2% Triton™-X-100. A subset of cells were treated with DNase for 10 minutes at room temperature and served as positive controls. Cell apoptosis was determined using the DeadEnd™ fluorometric TUNEL system. This method measures fragmented DNA through the incorporation of fluorescent-labeled d-UTP. Permeabilized cells were incubated in equilibration buffer with a nucleotide mix and the enzyme that catalyzes the reaction for 1 hour at 37° C. Negative controls were incubated without the enzyme. After several rinses in SSC and PBS, cells were mounted and visualized by fluorescence microscopy.

RAW264.7 cells [4] = assay: Cell proliferation by tritiated thymidine incorporation; format: cell-based, mouse; settings: 10^-6M 4-P-PDOT with RANKL, 2.5 days
Procedure: After 24 hour attachment, RAW264.7 cells were serum-starved overnight and then grown for 2.5 days in culture medium containing RANKL and melatonin (10^−7 or 10^−6M), or melatonin (10^−6M) and a melatonin receptor non-specific antagonist, luzindole (10^−8M), or melatonin (10^−6M) and 4-P-PDOT (10^−6M), or luzindole (10^−6M), or 4-P-PDOT (10^−6M) alone. Thymidine incorporation was assayed by the addition of 0.02 μCi/μL of tritiated thymidine to the medium 8 hours before cell harvest. Cells were then washed twice with ice-cold PBS and three times with cold 5% trichloroacetic acid. Cells were lysed in a mixture of 0.5N NaOH and 0.5% SDS and radioactivity of the lysates determined using a beta-counter.

male C57BL/6 mice = assay: Femur section histology (TRAP and Goldner staining) in treated mice; format: in vivo, mouse; settings: 10 mg/kg intraperitoneally three times a week, 4 weeks
Procedure: The effect of 4-P-PDOT on the formation of bones has also been tested using 4-week old male C57BL/6 mice following weaning. Mice were injected intraperitoneally with 10 mg/kg of 4-P-PDOT three times a week for 4 weeks (28 days). After this period, femur sections were stained to quantify tartrate-resistant acidic phosphatase- (TRAP-) positive osteoclasts (i.e. “active” osteoclasts). […] A Goldner staining was also performed on the femur sections in order to quantify the total number of osteoclasts.

male C57Bl/6j mice = assay: Low-BMD mouse model: weight gain and bone densitometry over 35 days; format: in vivo; settings: 10 mg/kg intraperitoneally three times a week, first 35 days
Procedure: In parallel, control animals received injections of a solution made of water and ethanol (20%). During this period, animals were subjected to weekly bone densitometric measurements (BMD and bone mineral content (BMC)) with a PixiMus™ II bone densitometer, and blood and urine collection. Scan of individual spine, long bones (femurs), were performed. Scans of tibiae, radius and mandible were also performed. To monitor bone formation rate, 25 mg/kg of tetracycline hydrochloride was injected on days 10 and 20 following the beginning of the injections. Bone histomorphometry for bone formation and resorption static and dynamic parameters were also measured. The biochemical markers used are alkaline phosphatase for bone formation, and urinary deoxypyridinoline for bone resorption.

SMILES	cAMP production [1]	bone resorption (resorption pits, resorbed area) (RAW 264.7 cells)	effect on osteoclastogenesis (TRAP-positive cells) (RAW264.7 cells [2]; 10^-9M melatonin with RANKL)	RANK's expression (RANK)	apoptosis, treated vs. untreated cells (RAW264.7 cells [3])	number of TRAP+ cells (osteoclast differentiation) (RAW264.7 cells [2]; 10^-6M 4-P-PDOT with RANKL)	cell proliferation, treated vs. untreated cells (RAW264.7 cells [4])	number of active (TRAP-positive) osteoclasts in femur sections vs control mice (male C57BL/6 mice)	number of total osteoclasts (Goldner staining) in femur sections (male C57BL/6 mice)	reduction in the relative number of active osteoclasts vs vehicle-treated mice (male C57BL/6 mice)	relative number of total osteoclasts vs vehicle-treated mice (male C57BL/6 mice)	trabecular bone (Goldner staining) in femur sections (male C57BL/6 mice)	bone mineral accretion at the spine and whole body level vs vehicle-injected animals (male C57Bl/6j mice)	weight gain vs vehicle-injected animals (male C57Bl/6j mice)
COc1ccc2[nH]cc(CCNC(C)=O)c2c1 [melatonin]	inhibited	significantly reduced bone resorption	did not have a significant effect	significant decrease										
CCC(=O)NC1Cc2ccccc2C(c2ccccc2)C1 (stereo not shown) [4-P-PDOT, 4-phenyl-2-propionamidotetralin]	cAMP production increases			significant decrease	comparable	reduces the number of TRAP+ cells	comparable	significant reduction	increased	about 3 fold	increased	increased	increase	increase
